US8106063B2, “Pyrimidyl sulphone amide derivatives as chemokine receptor modulators” (AstraZeneca AB, priority 2002, dated 2012)

Target: T1, hrCXCR2 (Homo sapiens, UniProt P25025)
T1 construct: expressed in transfected cells; host or cells: HEK 293 cells (ECACC No. 85120602), membranes of the highest expressing clone
T1 sequence (P25025 1-360): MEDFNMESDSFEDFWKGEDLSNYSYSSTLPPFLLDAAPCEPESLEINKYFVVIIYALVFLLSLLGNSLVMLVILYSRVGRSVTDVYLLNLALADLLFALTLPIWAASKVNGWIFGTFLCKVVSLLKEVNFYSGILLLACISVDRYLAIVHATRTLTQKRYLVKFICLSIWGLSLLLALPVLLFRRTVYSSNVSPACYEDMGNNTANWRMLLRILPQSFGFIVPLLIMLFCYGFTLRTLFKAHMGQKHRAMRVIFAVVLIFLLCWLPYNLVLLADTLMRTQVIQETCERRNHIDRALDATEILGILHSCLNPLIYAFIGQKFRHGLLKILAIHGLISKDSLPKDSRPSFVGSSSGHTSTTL
Experiment: Ligand binding assay ([125I]IL-8 binding to hrCXCR2 membranes)
Conditions: ~50 pM [125I]IL-8, membranes of HEK 293 cells expressing hrCXCR2, 1.5 hours at room temperature

IC50: 158 nM
SMILES: Cc1cccc(CSc2nc(NC(C)(C)CO)cc(NS(C)(=O)=O)n2)c1F [Example 116, N-{2-[(2-Fluoro-3-methylbenzyl)thio]-6-[(2-hydroxy-1,1-dimethylethyl)amino]-pyrimidin-4-yl}methanesulfonamide]
